According to US20140272947A1, “METHODS AND COMPOSITIONS FOR SCREENING MODULATORS OF ONCOGENE-INDUCED SENESCENCE” (Fox Chase Cancer Center, priority 2013, published 2014):

Legend:
[1] = tested on: primary fibroblasts (IMR90) transduced with H-RasG12V; assay: Validation: manual quantification of SA-β-gal positive cells; assay type: cell-based, human; settings: for % SA-β-Gal + Cells Avg: 250 nM inhibitor, +H-RasG12V IMR90, 7 additional days, >300 cells counted, triplicate
Description: Senescence-associated β-galactosidase (SA-β-Gal) assay has previously been described^9. Briefly, cells were fixed in 2% formaldehyde and 0.2% glutaraldehyde and washed with phosphate-buffered saline. Staining solution [40 mM Na2HPO4, 150 mM NaCl, 2 mM MgCl2, 5 mM K3Fe(CN)6, 5 mM K4Fe(CN)6, 1 mg/mL X-gal] was added with a multichannel pipette, and cells were incubated for 24 hrs. Cells were stained with DAPI (0.15 μg/mL) to visualize nuclei.
(§1) Cells with β-galactosidase (blue) positivity within the cytosol were considered positive. Cells were stained with DAPI to visualize nuclei and SAHF. Cells with punctate spots within the nuclear compartment were considered SAHF positive. Cells were imaged using a Nikon Eclipse Ni fluorescence microscope as previously described^15. Three different fields of cells were counted (total cells counted >300). These experiments were performed in triplicate. Data from validation experiments is shown as a percentage of SA-β-gal or SAHF positive cells.
These cells were then utilized in the SA-β-gal assay to examine changes in expression of SA-β-gal activity.
(§2) Other than the control, all of the tested compounds are +H-Ras^G12V. Percentage of SA-β-gal and SAHF positive cells is shown with indicated standard deviation (SD). Total cells with SA-β-gal positive cells or SAHF positive cells were counted in three separate fields (totals cells counted >300). Experiments were performed in triplicate. p-value determined by t-test.

[2] = tested on: primary fibroblasts (IMR90) transduced with H-RasG12V; assay: Validation: senescence-associated heterochromatin foci (SAHF) positive cells by DAPI staining; assay type: cell-based, human; settings: for % SAHF + Cells Avg: 250 nM inhibitor, +H-RasG12V IMR90, 9 days of culture, >300 cells counted, triplicate
Description: as §1
After 9 days of culture, we stained the cells with DAPI to visualize the formation of SAHF.
as §2

[3] = tested on: primary human fibroblasts (IMR90) transduced with H-RasG12V; assay: High-throughput senescence screen (SA-β-gal area and nuclei number, high-content imaging); assay type: cell-based; settings: 250 nM, 96-well, normalized to DMSO control, hit = beyond one standard deviation
Description: We use a model system for DIS that involves overexpressing an activated Ras in normal human fibroblast (IMR90). Upon expression of Ras, these cells undergo senescence as measured by increased β-galactosidase activity. IMR90 cells are infected with retrovirus control (496) or Ras (493). IMR90 cells were transduced over two days (Day −1 and 0) with pBABE-HRasG12V. Cells were then plated into a 96-well plate at a predetermined density (1,000 cells/well) and selected with puromycin (1 ug/mL) for two days (Day 1 and 2). The initial number of cells per well (1,000) was optimized to avoid confluence-induced growth inhibition. […] Allowing the cells to undergo senescence ([…] after puromycin selection), on day 9, cells were subjected to a quantitative SA-β-gal assay (described below) and stained with DAPI to visualize nuclei, which allowed for quantification of cell number. […]
For the screen, four fluorescence and four phase contrast images were acquired from each well of the 96-well plates with an ImageXpress Micro high-content imaging system (Molecular Devices, Sunnyvale Calif.) using the 10× objective. […] Fluorescence images were used to record DAPI staining of cell nuclei. Images were analyzed utilizing the MultiWavelength Scoring module in METAXPRESS image analysis software (Molecular Devices). […]

senescence = settings: literature report; cited from earlier work
[4] = 250 nM, RAS-expressing cells, significance p<0.05 vs DMSO

Structure (SMILES) | % SA-β-Gal + Cells Avg [1] [%] | % SAHF + Cells Avg [2] [%] | Reduction of expression of SA-β-gal activity (validation, in words) [1, 4] | Inhibition of oncogenic RAS-induced SAHF formation (validation, in words) [2, 4] | Effect on SA-β-gal area and cell number (nuclei) in initial screen [3] | Prevention of senescence (reported) (senescence)
CCc1[nH]c(-c2ccc(OC)cc2)nc1-c1ccncc1 [172747-50-1, SB 202474] | 6.7 | 10.4 |  |  |  | 
O=c1c2ccccc2[nH]c(=S)n1CCN1CCC(=C(c2ccc(F)cc2)c2ccc(F)cc2)CC1 [120166-69-0, Diacylglycerol Kinase Inhibitor II] | 5.2 | 10.4 |  |  |  | 
Cn1sc(=O)n(Cc2ccccc2)c1=O [327036-89-5, GSK3β Inhibitor I] | 6.5 | 7.8 |  |  |  | 
O=c1[nH]c2ccccc2n1C1CCN(Cc2ccc(-c3nc4cc5[nH]cnc5cc4nc3-c3ccccc3)cc2)CC1 [612847-09-3, Akt Inhibitor VIII] | 21.3 | 11.3 | failed to reduce SA-β-gal activity |  |  | 
Cc1[nH]c(/C=C2\C(=O)Nc3ccc(S(=O)(=O)N(C)c4cccc(Cl)c4)cc32)c(C)c1C(=O)N1CCN(C)CC1 [658084-23-2, Met Kinase inhibitor] | 5.0 | 14.7 |  |  |  | 
Cc1nc2cc3nc(-c4cccs4)cnc3cc2n1C [22617-28-8, AGL2043] | 10.9 | 10.2 |  |  |  | 
Cc1cc(Nc2nc(-c3ccccc3)nc3ccccc23)n[nH]1 [404828-08-6, GSK-3 Inhibitor XIII] | 8.2 | 7.0 |  |  |  | 
Oc1cccc(-c2nc(N3CCOCC3)c3oc4ncccc4c3n2)c1 [371935-74-9, PI-103] | 4.7 | 43.0 |  | failed to prevent SAHF formation |  | 
COc1ccc(S(=O)(=O)N(CCO)c2ccccc2CN(C)CC=Cc2ccc(Cl)cc2)cc1 [139298-40-1, KN-93] | 8.1 | 12.3 |  |  |  | 
O=C1NC(=O)/C(=C/c2ccc3c(c2)OC(F)(F)O3)S1 [648449-76-7] | 20.7 | 26.9 |  |  | no effect on SA-β-gal area or cell number | 
O=C(Nc1cccc(Nc2nccc(Nc3cccc(C(F)(F)F)c3)n2)c1)C1CC1 [879127-16-9, Aurora Kinase Inhibitor III] | 5.7 | 15.8 |  |  |  | 
NC(=O)c1ccc2nc(-c3ccc(Oc4ccc(Cl)cc4)cc3)[nH]c2c1 [516480-79-8, Chk2 Inhibitor II] | 7.4 | 13.2 |  |  |  | 
c1cc(-c2cnn3cc(-c4ccc(OCCN5CCCCC5)cc4)cnc23)ccn1 [866405-64-3, AMPK Compound C] | 4.4 | 15.9 |  |  |  | reported to prevent senescence
COc1cc2nccc(Oc3ccc(NC(=S)NC(=O)c4ccccc4C)cc3)c2cc1OC [347155-76-4, PDGFR Tyrosine Kinase Inhibitor V] | 6.7 | 16.3 |  |  |  | 
O=C(Nc1ccc(Cl)cc1)c1ccccc1NCc1ccncc1 [269390-69-4, VEGFR Tyrosine Kinase Inhibitor II] | 4.1 | 13.0 |  |  |  | 
O=C1NC(=O)C(c2cn(CCCn3ccnc3)c3ccccc23)=C1Nc1ccccc1 [257879-35-9, PKC β Inhibitor] | 5.5 | 8.3 |  |  |  | 
COc1cc2ncnc(Nc3cccc(Cl)c3)c2cc1OC [175178-82-2, AG 1478] | 3.8 | 11.5 |  |  |  | 
O=c1c(-c2ccc(F)cc2)c(-c2ccncc2)[nH]n1-c1ccc(Cl)cc1 [219138-24-6, P38 MAPK Inhibitor] | 5.8 | 16.3 |  |  |  | 
